The results in this text go back to PMC8595372 (Nature Communications, 2021).

Where two headings read alike, the source gives them in different places.

The target of one assay is T1, DYRK1A (Homo sapiens, UniProt Q13627).
T1 construct: kinase domain, residues 127–485
Description: biochemical. Details: nanoDSF thermal shift, Prometheus NT.48, 5 uM protein, ligand-induced melting temperature change versus buffer or DMSO control. Conditions: for ΔTm at 1 µM / ΔTm at 10 µM / ΔTm at 100 µM: read-out: ΔTm to control (°C); for ΔTm to control (°C): binder. How it is done:
(§1) Nano-differential scanning fluorimetry measurements were performed for the determination of thermal protein stability using a Prometheus NT.48 (NanoTemper) device operating at the two wavelengths λ = 330 and 350 nm. […] The thermal stability was monitored from 20 to 70 °C at a heating rate of 1.5 °C/min using the PR.ThermControl software. […] Kinases were immobilized to the chip surface by amine coupling. […] Dissociation constants were determined based on fits applying a 1:1 interaction model. b Thermal protein stability measurements were performed using the NanoDSF technique. […] For raw data see Supplementary Table 3. Source data are provided as a Source Data file.

In assay [1] the target is T2, HIPK3 (Homo sapiens, UniProt Q9H422).
T2 construct: kinase domain, residues 159–562
T2 sequence (Q9H422 159-562): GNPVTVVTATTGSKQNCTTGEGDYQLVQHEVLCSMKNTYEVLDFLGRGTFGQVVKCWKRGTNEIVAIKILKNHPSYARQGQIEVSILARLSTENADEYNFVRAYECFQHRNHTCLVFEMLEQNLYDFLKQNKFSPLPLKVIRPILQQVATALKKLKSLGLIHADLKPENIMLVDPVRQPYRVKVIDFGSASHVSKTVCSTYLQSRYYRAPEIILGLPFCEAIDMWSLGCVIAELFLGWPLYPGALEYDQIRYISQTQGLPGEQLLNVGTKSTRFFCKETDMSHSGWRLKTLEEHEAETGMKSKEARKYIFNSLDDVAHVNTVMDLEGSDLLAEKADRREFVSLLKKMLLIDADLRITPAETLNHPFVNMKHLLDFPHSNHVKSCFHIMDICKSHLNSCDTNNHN
Description: radioactive in vitro kinase assay, His-c-Myc substrate. Format: biochemical.

For assay [2], the target named is T3, HIPK1 (Homo sapiens, UniProt Q86Z02).
T3 construct: residues 154-554
T3 sequence (Q86Z02 154-554): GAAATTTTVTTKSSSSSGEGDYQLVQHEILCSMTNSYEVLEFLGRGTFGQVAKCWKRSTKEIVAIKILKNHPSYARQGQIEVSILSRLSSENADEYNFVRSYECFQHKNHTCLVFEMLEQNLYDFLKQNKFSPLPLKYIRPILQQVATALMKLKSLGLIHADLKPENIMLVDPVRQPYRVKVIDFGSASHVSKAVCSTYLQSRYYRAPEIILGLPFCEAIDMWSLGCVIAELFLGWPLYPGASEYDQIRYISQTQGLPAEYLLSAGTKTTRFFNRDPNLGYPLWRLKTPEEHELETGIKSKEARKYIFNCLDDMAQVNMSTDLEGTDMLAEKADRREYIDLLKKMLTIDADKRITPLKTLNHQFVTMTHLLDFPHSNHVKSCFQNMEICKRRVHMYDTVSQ
Description: radioactive in vitro kinase assay; nanoDSF shift +[…] °C. Format: biochemical. Background: In DSF a fluorescence change marks the thermal transition of the protein.

For assay [3], the target named is T2, HIPK3. Nature of the assay: ([…] Å) and SPR; kinase assay IC50 […]. The format is binding.
For assay [4], the target named is T4, HIPK2 (Homo sapiens, UniProt Q9H2X6).
T4 construct: residues 160–563
T4 sequence (Q9H2X6 160-563): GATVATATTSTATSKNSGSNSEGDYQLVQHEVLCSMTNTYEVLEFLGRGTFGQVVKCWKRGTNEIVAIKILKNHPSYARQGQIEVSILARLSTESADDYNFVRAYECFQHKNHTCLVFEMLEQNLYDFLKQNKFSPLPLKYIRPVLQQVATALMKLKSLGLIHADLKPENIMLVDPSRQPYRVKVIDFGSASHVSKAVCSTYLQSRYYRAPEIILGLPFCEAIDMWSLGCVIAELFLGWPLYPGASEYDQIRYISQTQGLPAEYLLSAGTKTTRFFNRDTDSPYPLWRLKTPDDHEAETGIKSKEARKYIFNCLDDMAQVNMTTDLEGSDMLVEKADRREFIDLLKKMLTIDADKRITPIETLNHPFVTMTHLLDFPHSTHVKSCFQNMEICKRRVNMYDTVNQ
Description: SPR single-cycle kinetics; nanoDSF; kinase assay IC50 […]. The format is binding.

In the next assay the target is T5, Cdk4 (Homo sapiens, UniProt P11802).
T5 construct: full-length Cdk4 (residues 1–303) with Cyclin D3 (residues 1–292); with Cyclin D3
T5 sequence (P11802 whole entry, the tested form may be a part): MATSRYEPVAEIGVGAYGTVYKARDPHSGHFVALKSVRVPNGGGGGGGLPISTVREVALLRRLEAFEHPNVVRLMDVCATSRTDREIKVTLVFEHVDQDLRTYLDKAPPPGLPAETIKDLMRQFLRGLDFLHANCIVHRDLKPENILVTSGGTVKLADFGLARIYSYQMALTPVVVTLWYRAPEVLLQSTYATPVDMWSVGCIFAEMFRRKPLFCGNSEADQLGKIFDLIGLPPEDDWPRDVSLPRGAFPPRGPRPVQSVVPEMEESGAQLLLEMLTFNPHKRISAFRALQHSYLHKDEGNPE
T5 sequence (P30281 whole entry partner, the tested form may be a part): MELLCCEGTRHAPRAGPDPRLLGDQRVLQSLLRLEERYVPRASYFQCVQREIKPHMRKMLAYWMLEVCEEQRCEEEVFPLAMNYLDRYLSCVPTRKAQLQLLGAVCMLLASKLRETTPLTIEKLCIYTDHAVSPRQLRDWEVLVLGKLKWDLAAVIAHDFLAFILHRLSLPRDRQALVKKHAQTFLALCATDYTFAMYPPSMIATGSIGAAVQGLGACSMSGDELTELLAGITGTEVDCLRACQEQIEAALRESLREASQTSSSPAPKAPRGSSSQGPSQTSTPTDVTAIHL
Description: biochemical. Details: nanoDSF thermal shift, Prometheus NT.48, 5 uM protein, ligand-induced melting temperature change versus buffer or DMSO control. Conditions: read-out: ΔTm to control (°C). How it is done:
as §1

A further assay has as its target T6, Cdk9 (Homo sapiens, UniProt P50750).
T6 construct: full-length Cdk9 (residues 1–372) with Cyclin T1 (residues 1–272); with Cyclin T1
Nature of the assay: biochemical. Details: nanoDSF thermal shift, Prometheus NT.48, 5 uM protein, ligand-induced melting temperature change versus buffer or DMSO control. Conditions: read-out: ΔTm to control (°C). As for the experimental part:
as §1

In assay [5] the target is T3, HIPK1. Description: biochemical. Details: nanoDSF thermal shift, Prometheus NT.48, 5 uM protein, ligand-induced melting temperature change versus buffer or DMSO control. Particulars: read-out: ΔTm to control (°C). How it is done:
as §1

Assay [6] has as its target T4, HIPK2. Nature of the assay: biochemical. Conditions: read-out: ΔTm to control (°C). Details: nanoDSF thermal shift, Prometheus NT.48, 5 uM protein, ligand-induced melting temperature change versus buffer or DMSO control. How it is done: as §1
Assay [7] addresses T2, HIPK3. Description: biochemical. The arrangement: nanoDSF thermal shift, Prometheus NT.48, 5 uM protein, ligand-induced melting temperature change versus buffer or DMSO control. Particulars: read-out: ΔTm to control (°C). How it is done:
as §1

T6 sequence (P50750 whole entry, the tested form may be a part): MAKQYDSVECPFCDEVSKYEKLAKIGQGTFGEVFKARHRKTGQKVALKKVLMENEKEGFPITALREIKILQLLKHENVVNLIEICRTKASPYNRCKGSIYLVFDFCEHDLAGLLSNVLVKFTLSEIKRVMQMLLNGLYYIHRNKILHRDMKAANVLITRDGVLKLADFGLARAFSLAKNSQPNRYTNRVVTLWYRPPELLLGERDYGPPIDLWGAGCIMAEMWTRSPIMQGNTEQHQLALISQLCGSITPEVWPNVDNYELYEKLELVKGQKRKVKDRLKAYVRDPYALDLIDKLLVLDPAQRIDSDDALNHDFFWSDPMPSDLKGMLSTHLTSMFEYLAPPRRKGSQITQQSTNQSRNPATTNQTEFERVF
T6 sequence (O60563 1-272 partner): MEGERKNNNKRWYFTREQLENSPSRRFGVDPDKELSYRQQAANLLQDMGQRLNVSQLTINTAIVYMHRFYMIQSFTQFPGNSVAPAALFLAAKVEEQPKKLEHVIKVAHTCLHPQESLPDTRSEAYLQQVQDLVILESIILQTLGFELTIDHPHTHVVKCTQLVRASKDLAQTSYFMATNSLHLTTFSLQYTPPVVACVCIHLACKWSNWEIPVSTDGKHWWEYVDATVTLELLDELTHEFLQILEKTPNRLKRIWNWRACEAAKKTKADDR

Turning to `Nc1ncnc2c1ncn2[C@@H]1O[C@H](COP(=O)(O)OP(=O)(O)O)[C@@H](O)[C@H]1O` [ADP], at DYRK1A, the ΔTm at 1 µM is -0.1 °C, the ΔTm at 10 µM amounted to 0 °C and the ΔTm at 100 µM was -0.1 °C.

Turning to `Nc1ncnc2c1ncn2[C@@H]1O[C@H](COP(=O)(O)OP(=O)(O)OP(=O)(O)O)[C@@H](O)[C@H]1O` [ATP], the “ΔTm to control (°C)” value at DYRK1A (1 uM) was -0.2 °C; on DYRK1A (10 uM) it was “+0.1 °C”; at DYRK1A (100 uM), 0.0 °C.

With `O=C1NC(=O)/C(=C/c2ccc3nccc(-c4ccncc4)c3c2)S1` [GSK1059615], the IC50 on HIPK3 [1] worked out at 1080 nM.

With `CN(C)C[C@H]1CC[C@H](N2C(=O)NCc3cnc4ccc(-c5cc(Cl)c(O)c(Cl)c5)cc4c32)CC1` [HTH-01-091], at HIPK3 [1] (read-out: IC50), the IC50 came out at 1600 nM.

In the case of `CCN1CCN(Cc2ccc(Nc3ncc(F)c(-c4cc(F)c5nc(C)n(C(C)C)c5c4)n3)nc2)CC1` [abemaciclib], at HIPK1 [2], the IC50 was 4530 nM. The Kd on HIPK3 [3] and at HIPK2 [4] was 0.8 nM each time. Further, the ΔTm at 1 µM amounted to 4.1 °C at Cdk4; 0.6 °C at Cdk9; 0.6 °C on DYRK1A; 0.4 °C on HIPK1 [5]; 1.5 °C at HIPK2 [6]; 0.2 °C on HIPK3 [7]. Moreover, the ΔTm at 100 µM is 7.9 °C on Cdk4; 5.2 °C on DYRK1A; 8.7 °C on HIPK1 [5]; 7.2 °C at HIPK2 [6]; 7.4 °C at HIPK3 [7]. Besides, the ΔTm at 10 µM on Cdk9 was found to be 2.4 °C; on DYRK1A, 3.1 °C; on HIPK1 [5] it was 6.4 °C; on HIPK2 [6] it was 4.7 °C; at HIPK3 [7], 5.3 °C.

The ΔTm is the change in melting temperature against a reference sample. Broadly, the IC50 is the midpoint of a concentration-inhibition curve. For orientation: Kd means the concentration at which binding is half-saturated. Low values mean higher affinity, high ones lower affinity.
